Assay results published in patent publication US20140357487A1, “PLANTS HAVING INCREASED TOLERANCE TO HERBICIDES” (BASF SE, priority 2011, published 2014).

Legend:
[1] = system: corn plants, wild type (transgene none); experiment: Greenhouse testing of corn plants, wild type; assay type: in vivo, Zea mays; settings: 5 days after herbicide treatment
From the text: (§1) Various methods for the production of stably transformed plants are well known in the art. Coumarone-derivative herbicide tolerant soybean (Glycine max) or corn (Zea mays) plants can be produced by a method described by Olhoft et al. (US patent 2009/0049567). Briefly, HPPD or HST encoding polynucleotides are cloned into a binary vector using standard cloning techniques as described by Sambrook et al. (Molecular cloning (2001) Cold Spring Harbor Laboratory Press). The final vector construct contains an HPPD or HST encoding sequence flanked by a promoter sequence (e.g. the ubiquitin promoter (PcUbi) sequence) and a terminator sequence (e.g. the nopaline synthase terminator (NOS) sequence) and a resistance marker gene cassette (e.g. AHAS) (FIG. 2). Optionally, the HPPD or HST gene can provide the means of selection. Agrobacterium-mediated transformation is used to introduce the DNA into soybean's axillary meristem cells at the primary node of seedling explants. After inoculation and co-cultivation with Agrobacteria, the explants are transferred to shoot induction medium without selection for one week. The explants are subsequently transferred to shoot induction medium with 1-3 μM imazapyr (Arsenal) for 3 weeks to select for transformed cells. Explants with healthy callus/shoot pads at the primary node are then transferred to shoot elongation medium containing 1-3 μM imazapyr until a shoot elongates or the explant dies. After regeneration, transformants are transplanted to soil in small pots, placed in growth chambers (16 hr day/8 hr night; 25° C. day/23° C. night; 65% relative humidity; 130-150 mE m−2 s−1) and subsequently tested for the presence of the T-DNA via Taqman analysis. After a few weeks, healthy, transgenic positive, single copy events are transplanted to larger pots and allowed to grow in the growth chamber. Transformation of corn plants is done by a method described by McElver and Singh (WO 2008/124495). Plant transformation vector constructs containing HPPD or HST sequences are introduced into maize immature embryos via Agrobacterium-mediated transformation. Transformed cells are selected in selection media supplemented with 0.5-1.5 μM imazethapyr for 3-4 weeks. Transgenic plantlets are regenerated on plant regeneration media and rooted afterwards. Transgenic plantlets are subjected to TaqMan analysis for the presence of the transgene before being transplanted to potting mixture and grown to maturity in greenhouse. Arabidopsis thaliana is transformed with HPPD or HST sequences by floral dip method as described by McElver and Singh (WO 2008/124495). Transgenic Arabidopsis plants are subjected to Tag Man analysis for analysis of the number of integration loci. Transformation of Oryza sativa (rice) are done by protoplast transformation as described by Peng et al. (U.S. Pat. No. 6,653,529)
(§2) Transgenic plants expressing heterologous HPPD or HST enzymes are tested for tolerance against coumarone-derivative herbicides in greenhouse experiments.
(§3) For post emergence treatment, the test plants are first grown to a height of 3 to 15 cm, depending on the plant habit, and only then treated with the herbicides. For this purpose, the test plants are either sown directly and grown in the same containers, or they are first grown separately and transplanted into the test containers a few days prior to treatment.
(§4) Depending on the species, the plants are kept at 10-25° C. or 20-35° C. The test period extends over 3 weeks. During this time, the plants are tended and their response to the individual treatments is evaluated. […] Tolerance to coumarone-derivative herbicides can also be assessed in Arabidopsis. In this case transgenic Arabidopsis thaliana plants are assayed for improved tolerance to coumarone-derivative herbicides in 48-well plates. Seeds are surface sterilized by stirring for 5 min in ethanol+water (70+30 by volume), rinsing one time with ethanol+water (70+30 by volume) and two times with a sterile, deionized water. […]

[2] = system: transgenic corn plants, Arabidopsis Q293S, event SDM-71864; experiment: Greenhouse testing of transgenic corn plants, Arabidopsis Q293S; assay type: in vivo, Zea mays; settings: corn SDM-71864, 5 days after herbicide treatment, average of 8 T1
From the text: as §1, §2, §3
as §4, with “The test period extends over 3 weeks.” left out

CC1(C)c2cccnc2C(O)=C(c2ccc(Cl)nc2Cl)S1(=O)=O [Inhibitor 2, 7-(2,6-dichloro-3-pyridyl)-5,5-dimethyl-6,6-dioxo-thiopyrano[4,3-b]pyridin-8-ol]
Injury evaluation, scale of 1-100, bleaching phenotype ([1]; 2.5 g/ha): 20
Injury evaluation, scale of 1-100, bleaching phenotype ([1]; 10 g/ha): 45
Injury evaluation, scale of 1-100, bleaching phenotype ([1]; 40 g/ha): 33
Injury evaluation, scale of 1-100, bleaching phenotype ([2]; 2.5 g/ha): 4
Injury evaluation, scale of 1-100, bleaching phenotype ([2]; 10 g/ha): 17
Injury evaluation, scale of 1-100, bleaching phenotype ([2]; 40 g/ha): 15

Cc1c(C(=O)c2cnn(C)c2O)ccc(S(C)(=O)=O)c1C1=NOCC1 [Topramezone, reference compound]
Injury evaluation, scale of 1-100, bleaching phenotype ([1]; 6.25 g/ha): 0
Injury evaluation, scale of 1-100, bleaching phenotype ([1]; 25 g/ha): 0
Injury evaluation, scale of 1-100, bleaching phenotype ([1]; 100 g/ha): 0
Injury evaluation, scale of 1-100, bleaching phenotype ([2]; 6.25 g/ha): 1
Injury evaluation, scale of 1-100, bleaching phenotype ([2]; 25 g/ha): 4
Injury evaluation, scale of 1-100, bleaching phenotype ([2]; 100 g/ha): 6
